The record followed here is patent US12012404B2, “Pyrimidoheterocyclic compounds and application thereof” (D3 BIO (WUXI) CO., LTD., priority 2020, dated 2024).

Series [1] has as its system plasma protein of CD-1 mice. Briefly: Protein binding rate by equilibrium dialysis, CD-1 mice plasma. Type of series: in vitro ADME. The conditions noted are these: for Protein unbound rate: CD-1 mice plasma, 2 μM, dialysis 4 hours. The method, then: Purpose of the assay: Protein binding rate of the assay compounds in plasma of CD-1 mice, SD rats, beagle dogs, cynomolgus monkeys and human was determined by equilibrium dialysis.
Procedure of the assay: Plasma samples with a compound concentration of 2 μM were prepared using plasma of the above five species, placed in a 96-well equilibrium dialysis device, and dialyzed with phosphate buffer solution at 37±1° C. for 4 hours. Warfarin was used as the control compound in this assay. The concentrations of the assay compounds in plasma and dialysis buffer were determined by LC-MS/MS method.
(In general: In equilibrium dialysis only unbound substance equilibrates across the membrane.)

Series [2] in a line: In vitro stability in liver microsomes, cynomolgus monkeys. The conditions noted are these: 0.5 mg/mL. The class given is in vitro ADME. The method, then: Purpose of the assay: Metabolic stabilities of the assay compounds in liver microsomes of CD-1 mice, SD rats, beagle dogs, cynomolgus monkeys, and human were assayed, respectively.
Procedure of the assay: Two 96-well incubation plates were prepared and named T60 incubation plate and NCF60 incubation plate, respectively. 445 μL of microsomal working solutions (liver microsomal protein concentration of 0.56 mg/mL) were added to the T60 incubation plate and the NCF60 incubation plate, respectively, and then the above incubation plates were pre-incubated in a 37° C. water bath for about 10 minutes.
After the pre-incubation, 5 μL of working solutions of the assay sample or the control compound were added to the T60 incubation plate and the NCF60 incubation plate, respectively, and the mixture was mixed well. 50 μL of potassium phosphate buffer was added to each well of the NCF60 incubation plate to initiate the reaction. 180 μL of stop solution (200 ng/mL tolbutamide and 200 ng/mL labetalol in acetonitrile) and 6 uL of NADPH regeneration system working solution were added to the T0 stop plate, and 54 μL of sample was transferred from T60 incubation plate to T0 stop plate (generation of TO sample). The reaction was initiated by adding 44 μL of NADPH regeneration system working solution to each well of the T60 incubation plate. Only 54 μL of microsome working solution, 6 uL of NADPH regeneration system working solution and 180 μL of stop solution were added to the Blank plate. Therefore, in samples of the assay compound or the control compound, the final reaction concentration of compound, testosterone, diclofenac and propafenone was 1 μM, the concentration of liver microsomes was 0.5 mg/mL, and the final reaction concentrations of DMSO and acetonitrile in the reaction system were 0.01% (v/v) and 0.99% (v/v), respectively.
After an appropriate time (e.g., 5, 15, 30, 45 and 60 minutes) of incubation, 180 μL of stop solutions (200 ng/mL tolbutamide and 200 ng/mL labetalol in acetonitrile) were added to the sample wells of each stop plate, respectively. 60 μL of sample was removed from the T60 incubation plate to stop the reaction. All sample plates were shaken well and then centrifuged at 3220×g for 20 minutes. Then 80 μL of supernatant was taken out from each well, and diluted in 240 μL of pure water for liquid chromatography-tandem mass spectrometry analysis. All samples were injected and analyzed by liquid chromatography-tandem mass spectrometry.
On the technique in general: Microsomes from liver hold many membrane-bound enzymes, among them those of drug oxidation.

In series [3] the test system is human pancreatic cancer Mia PaCa-2 cells. As to the kind of experiment: Pharmacodynamics in vivo in subcutaneously transplanted tumor model of Mia PaCa-2 cells. Set-up: species or system Balb/c Nude mice. The conditions noted are these: day 22 of administration. The procedure: Assay on pharmacodynamics in vivo in a subcutaneously transplanted tumor model of human pancreatic cancer Mia PaCa-2 cells in Balb/c Nude mice
Cell culture: Human pancreatic cancer Mia PaCa-2 cells (ATCC-CRL-1420) were cultured in monolayer in vitro in DMEM medium with 10% fetal calf serum and 2.5% horse serum in a 37° C., 5% carbon dioxide incubator. Cells were passaged by routine digestion with trypsin-EDTA twice a week. When the cell saturation reached 80%-90% and the cell number met the requirement, the cells were harvested, counted, and resuspended in an appropriate amount of PBS. Matrigel was added in a ratio of 1:1 to obtain a cell suspension with a cell density of 25×10^6 cells/mL.
Cell inoculation: 0.2 mL (5×10^6 cells/mouse) of Mia PaCa-2 cells (plus Matrigel, 1:1 by volume) were subcutaneously inoculated into the right back of each mouse. When the average tumor volume reached 190 mm^3, mice were randomized into groups based on tumor volume and administration was initiated according to the protocol in Table 10.
Tumor diameter was measured with vernier caliper twice a week. The calculation formula of tumor volume was: V=0.5a×b^2, where a and b represent the long and short diameters of the tumor, respectively.
The anti-tumor efficacy of compounds was evaluated by TGI (%) or relative tumor proliferation rate T/C (%). Relative tumor proliferation rate T/C (%)=TRTV/CRTV×100% (TRTV: RTV in a treatment group; CRTV: RTV in a negative control group). The relative tumor volume (RTV) was calculated according to results of tumor measurement, and the calculation formula was RTV=Vt/VO, where VO was average tumor volume measured at the time of administration by group (i.e., DO), and Vt was average tumor volume at the time of a certain measurement. For TRTV and CRTV, data on the same day were used.
TGI (%) reflected tumor growth inhibition rate. TGI (%)=[(1−(average tumor volume at the end of administration of a treatment group−average tumor volume at the beginning of administration of the treatment group))/(average tumor volume at the end of treatment of a vehicle control group−average tumor volume at the beginning of treatment of the vehicle control group)]×100%.

Regarding `C=C(F)C(=O)N1CCN(c2nc(OCC3CCCN3C)nc3c2COC(c2c(F)c(N)cc(C)c2C(F)(F)F)C3)CC1CC#N.Cl` (single isomer, unassigned) [Compound 8B hydrochloride], in series [1], the Protein unbound rate came out at 12.0. Besides, in series [1] (mice, as listed in PK Table 9), the “Plasma protein unbound rate PPB (Unbound %)” value is listed as 12.0%. Besides, in series [2] (1 μM), the “CLint(liver)” value turned out to be 80.3 mL/min/kg, the CLint(mic) amounted to 59.5 µL/min/mg and the T1/2 is 23.3 min. Moreover, in series [3] (10 mg/kg PO QD), the Average tumor volume is recorded as 745.84 mm^3; the T/C (usually the result in the treated group divided by that in the control group, in per cent) is listed as 36.99%; the TGI – broadly, how far tumour growth fell short of that in controls – was determined as 66.89%. In series [3] (30 mg/kg PO QD), this compound registered an Average tumor volume of 227.15 mm^3, a T/C of 11.28% and a TGI of 94.23%.
Consider `C=C(F)C(=O)N1CCN(c2nc(OC[C@@]34CCCN3C[C@H](F)C4)nc3c2COC(c2c(F)c(N)cc(C)c2C(F)(F)F)C3)C[C@@H]1CC#N` (stereo partly drawn) [Compound 17], for which, in series [1], the Protein unbound rate was 1.5. The compound further showed a CLint(mic) in series [2] (1 μM) of 225 µL/min/mg. Further, in series [2] (cynomolgus monkey), the CLint scaled (as a rule, a measure of how fast metabolising enzymes remove a compound, apart from limits set by blood flow) at 1 μM amounted to 303 mL/min/kg and the half-life (commonly the time in which the quantity being followed falls by half) at 1 μM was found to be 6.2 min. In series [3] (10 mg/kg PO QD), this compound registered an Average tumor volume of 249.87 mm^3, a T/C of 12.39% and a TGI of 93.06%. In series [3] (30 mg/kg PO QD), this compound had an Average tumor volume of 124.14 mm^3, a T/C of 6.16% and a TGI of 99.64%.
